According to patent publication US5464834A, “N-substituted N'-heterobicyclic piperazines having pharmaceutical activity” (Adir et Compagnie, priority 1992, dated 1995):

Assays:
5HT1A receptors [1] = target: T1, 5HT1A receptors (Rattus norvegicus, UniProt P19327); assay: Body temperature / hypothermia, agonist (alone) and antagonist (vs 8-OH-DPAT); assay type: in vivo, rat (male Wistar); set-up: from tissue; host or cells: whole living male Wistar rats (endogenous receptor)
T1 sequence (P19327 1-422): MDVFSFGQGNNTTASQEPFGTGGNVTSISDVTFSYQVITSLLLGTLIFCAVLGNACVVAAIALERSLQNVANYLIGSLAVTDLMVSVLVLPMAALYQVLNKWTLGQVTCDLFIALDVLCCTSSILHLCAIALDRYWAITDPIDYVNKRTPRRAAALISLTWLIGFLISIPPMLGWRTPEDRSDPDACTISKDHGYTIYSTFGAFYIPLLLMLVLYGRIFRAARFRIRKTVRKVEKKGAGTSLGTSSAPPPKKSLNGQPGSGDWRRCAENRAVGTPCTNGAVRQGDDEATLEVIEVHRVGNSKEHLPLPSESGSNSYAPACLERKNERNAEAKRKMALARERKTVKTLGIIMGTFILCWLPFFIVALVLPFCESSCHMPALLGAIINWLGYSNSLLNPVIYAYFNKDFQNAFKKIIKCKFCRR
Method: (§1) The tests were carried out using male Wistar rats weighing 200 to 220 g having free access to their food and to their drinking water in standard cages.
The animals are isolated individually for the tests for hypothermia, corticosterone secretion and flat body posture, or combined in groups of three for the tailflick test.
The compounds to be studied were administered by the subcutaneous route (s.c.) 60 minutes before the beginning of the test, that is to say 30 minutes before the solvent (agonist responses) or the 8-OH-DPAT (antagonist responses).
In all of the tests the solvent is used in parallel as a control. The animals were left to rest in their cage during the period between the injections and the evaluation. For the agonist studies, the solvent was administered at 1 ml/kg s.c. 30 minutes before the beginning of the test. For the antagonist studies, doses of 8-OH-DPAT that induce sub-maximal responses were chosen, that is doses of 0.63, 0.16, 0.16 and 0.16 mg/kg s.c. for, respectively, the tail flick test, flat body posture test, corticosterone secretion test and hypothermia test.
The rats are immobilised and a lubricated digital thermometer (Termistroprobe of Testotherm, Basle, Switzerland) is inserted into the rectum to a depth of 5 cm. 30 seconds after insertion, the temperature is read on a digital scale. The percentage inhibition is calculated using the formula given above.
In general, after variance analysis, the results are subjected to the Dunett test. The results are taken as significant if p <0.05.
(§2) The doses of the compounds tested are all expressed in base terms. Unless specified otherwise, all of the compounds were dissolved in sterile water (to which if necessary a few drops of lactic acid were added) and administered at a volume of 1 ml/kg s.c.

5HT1A receptors [2] = target: T1, 5HT1A receptors; assay: Drug discrimination (DD) 8-OH-DPAT; assay type: in vivo, rat (male Wistar); set-up: from tissue; host or cells: whole living male Wistar rats (endogenous receptor); conditions: for ED50: rat, sc, rats trained on 8-OH-DPAT 0.31 mg/kg
Method: as §1
Male rats are maintained at 85% of their normal body weight by means of food restriction. In soundproofed chambers the animals are trained to press a pedal to obtain food according to an FR10 procedure (Fixed Ratio 10; the food is supplied to the rat when it has pressed the lever 10 times).
Daily sessions of 15 minutes are preceded by an injection of solvent or of the training drug (0.31 mg/kg of 8-OH-DPAT, j.p.). The animal receives a pellet of food after pressing 10 times on the "solvent" or "drug" pedal according to the compound administered before the session.
After the learning period the animals are tested twice a week (Wednesday and Friday). On the other three days training sessions are carried out.
On the training days the rats are given either solvent or 8-OH-DPAT 15 minutes before being tested.
On the test days the rats receive the chemical substance 60 minutes before the session.
The capacity of the chemical substance administered to induce a response (pressing on the "solvent" or "drug" (8-OH-DPAT ) lever ) is recorded.
7 animals chosen at random are used for each substance and for each dose. During the test period, the lever on which the rat first presses 10 times is determined as the lever chosen--a food pellet is then delivered. That selected lever will be reinforced by the delivery of food up to the end of the test session. The percentage of animals selecting the "drug" lever at a particular dose is calculated. In addition, the total number of responses carried out on the two levers is expressed as a percentage of the number of responses carried out on the "solvent" lever obtained on the occasion of a preceding training session.
as §2

HYPOTHERMIA MED alone (5HT1A receptors [1]; agonist test, compound alone s.c., minimum effective dose vs control): 10.0 mg/kg
ED50 (5HT1A receptors [1]; rat, sc, antagonist test, s.c., vs 8-OH-DPAT 0.16 mg/kg s.c., read-out: HYPOTHERMIA ID50 (95% CL) + DPAT): 0.16 mg/kg
% MPA (% maximum possible antagonism), HYPOTHERMIA (5HT1A receptors [1]; vs 8-OH-DPAT 0.16 mg/kg s.c.): 98%
ED50 (5HT1A receptors [2]; antagonist, vs 8-OH-DPAT, read-out: DD 8-OH-DPAT ID50 (95% CL) + DPAT): 0.63 mg/kg
ED50 (5HT1A receptors [2]; compound alone, 60 min before session, read-out: DD 8-OH-DPAT ED50 (95% CL) alone): > 2.5 mg/kg
% MPA (% maximum possible antagonism), DD (5HT1A receptors [2]; vs 8-OH-DPAT): 100%
Structure (SMILES): c1cc2c(c(N3CCN(CCCc4ccsc4)CC3)c1)OCCO2 [Example 1, 4-(Benzodioxan-5-yl)-1-[3-(thiophen-3-yl)propyl]piperazine]
